Measured values published in ChEMBL document CHEMBL4390657, “Discovery of arylbenzylamines as PDE4 inhibitors with potential neuroprotective effect” (Eur J Med Chem, 2019).
The source made the active and inactive calls. The calls are words filed in the database; no cut-off is given here.

Key:
[1] = molecular target: T1, 3',5'-cyclic-AMP phosphodiesterase 4B (Homo sapiens, UniProt Q07343); assay: Inhibition of human full length N-terminal GST-tagged PDE4B1 expressed in baculovirus infected Sf9 cells using cAMP as substrate incubated for 1 hr by fluorescence polarization assay
[2] = Inhibition of human N-terminal GST-tagged PDE4D7 (2 to 748 residues) expressed in baculovirus infected Sf9 cells using cAMP as substrate after 1 hr by fluorescence polarization assay
[3] = molecular target: T1, 3',5'-cyclic-AMP phosphodiesterase 4B; assay: Inhibition of human full length N-terminal GST-tagged PDE4B1 expressed in baculovirus infected Sf9 cells using cAMP as substrate incubated for 1 hr by fluorescence polarization assay relative to control
[4] = test system: SH-SY5Y; assay: Neuroprotective activity in human SH-SY5Y cells assessed as reduction in MPP+ induced cytotoxicity at 30 to 60 uM preincubated for 1 hr followed by MPP+ addition and measured after 48 hrs by MTT assay; assay type: functional, cell-based
[5] = test system: SH-SY5Y; assay: Neuroprotective activity against MPP+-induced cell apoptosis in human SH-SY5Y cells assessed as effect on morphological changes at 30 to 60 uM preincubated for 1 hr followed by MPP+ addition and measured after 48 hrs by PI staining based inverse fluorescent microscopic analysis; assay type: functional
[6] = test system: SH-SY5Y; assay: Cytotoxicity against human SH-SY5Y cells assessed as reduction in cell viability at 3.1 to 50 uM incubated for 48 hrs by MTT assay; assay type: cell-based
[7] = AUC (0 to t) in Sprague-Dawley rat at 10 mg/kg, po by measured up to 24 hrs by LC-MS /MS analysis; assay type: ADME, organism-based; design: time < 24 hr, dose 10 mg/kg, route oral; settings: in vivo
[8] = Oral bioavailability in Sprague-Dawley rat at 10 mg/kg by measured up to 24 hrs by LC-MS /MS analysis; assay type: ADME, organism-based; settings: in vivo
[9] = Cmax in Sprague-Dawley rat at 2 mg/kg, iv by measured up to 24 hrs by LC-MS /MS analysis; assay type: ADME, organism-based; design: dose 2 mg/kg, route intravenous; settings: in vivo
[10] = Mean residence time (0 to infinity) in Sprague-Dawley rat at 2 mg/kg, iv by measured up to 24 hrs by LC-MS /MS analysis; assay type: ADME, organism-based; settings: in vivo
[11] = Mean residence time (0 to infinity) in Sprague-Dawley rat at 10 mg/kg, po by measured up to 24 hrs by LC-MS /MS analysis; assay type: ADME, organism-based; settings: in vivo
[12] = AUC (0 to infinity) in Sprague-Dawley rat at 10 mg/kg, po by measured up to 24 hrs by LC-MS /MS analysis; assay type: ADME, organism-based; design: dose 10 mg/kg, time infinity, route oral; settings: in vivo
[13] = Tmax in Sprague-Dawley rat at 2 mg/kg, iv by measured up to 24 hrs by LC-MS /MS analysis; assay type: ADME, organism-based; settings: in vivo
[14] = Clearance in Sprague-Dawley rat at 2 mg/kg, iv by measured up to 24 hrs by LC-MS /MS analysis; assay type: ADME, organism-based; settings: in vivo
[15] = Cmax in Sprague-Dawley rat at 10 mg/kg, po by measured up to 24 hrs by LC-MS /MS analysis; assay type: ADME, organism-based; design: dose 10 mg/kg, route oral; settings: in vivo
[16] = Half life in Sprague-Dawley rat at 2 mg/kg, iv by measured up to 24 hrs by LC-MS /MS analysis; assay type: ADME, organism-based; settings: in vivo
[17] = Volume of distribution at steady state in Sprague-Dawley rat at 2 mg/kg, iv by measured up to 24 hrs by LC-MS /MS analysis; assay type: ADME, organism-based; settings: in vivo, read-out: Vdss
[18] = AUC (0 to t) in Sprague-Dawley rat at 2 mg/kg, iv by measured up to 24 hrs by LC-MS /MS analysis; assay type: ADME, organism-based; design: dose 2 mg/kg, time < 24 hr, route intravenous; settings: in vivo
[19] = Tmax in Sprague-Dawley rat at 10 mg/kg, po by measured up to 24 hrs by LC-MS /MS analysis; assay type: ADME, organism-based; settings: in vivo
[20] = AUC (0 to infinity) in Sprague-Dawley rat at 2 mg/kg, iv by measured up to 24 hrs by LC-MS /MS analysis; assay type: ADME, organism-based; design: dose 2 mg/kg, time infinity, route intravenous; settings: in vivo
[21] = Half life in Sprague-Dawley rat at 10 mg/kg, po by measured up to 24 hrs by LC-MS /MS analysis; assay type: ADME, organism-based; settings: in vivo

T1 sequence (Q07343 whole entry, the tested form may be a part): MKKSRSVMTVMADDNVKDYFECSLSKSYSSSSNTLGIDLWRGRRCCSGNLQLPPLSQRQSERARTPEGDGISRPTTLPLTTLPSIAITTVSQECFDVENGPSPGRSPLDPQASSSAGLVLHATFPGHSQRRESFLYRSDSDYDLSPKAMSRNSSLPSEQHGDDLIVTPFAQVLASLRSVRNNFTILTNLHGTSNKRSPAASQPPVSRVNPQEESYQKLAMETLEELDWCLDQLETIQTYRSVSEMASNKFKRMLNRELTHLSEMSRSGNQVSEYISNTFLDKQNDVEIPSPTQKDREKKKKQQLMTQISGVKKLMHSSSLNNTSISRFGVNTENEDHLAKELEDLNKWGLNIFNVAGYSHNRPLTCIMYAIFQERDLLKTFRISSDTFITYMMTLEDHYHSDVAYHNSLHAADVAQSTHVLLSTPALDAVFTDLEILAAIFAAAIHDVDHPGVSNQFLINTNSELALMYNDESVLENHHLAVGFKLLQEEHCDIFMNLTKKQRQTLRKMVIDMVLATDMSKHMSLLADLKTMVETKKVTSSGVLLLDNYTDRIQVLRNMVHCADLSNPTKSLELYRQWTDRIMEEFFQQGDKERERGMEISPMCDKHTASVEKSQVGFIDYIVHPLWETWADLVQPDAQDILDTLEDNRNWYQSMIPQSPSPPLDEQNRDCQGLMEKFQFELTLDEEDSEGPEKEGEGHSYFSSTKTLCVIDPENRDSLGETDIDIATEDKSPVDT

IC50 [1] [nM] | IC50 [2] [nM] | SMILES | also measured
> 100000 | > 100000 | COc1ccc(CN[C@H](C(=O)O)C(C)C)cc1-c1cccc(Cl)c1 | –
> 10000 | > 10000 | COc1ccc(CNc2ccc(Cl)cc2)cc1-c1cccc(Cl)c1 | –
3500 | 1800 | COc1ccc(CN2CCOCC2)cc1-c1cccc(Cl)c1 | –
> 10000 | > 10000 | COc1ccc(NCc2ccc(OC)c(-c3cccc(Cl)c3)c2)cn1 | –
> 10000 | > 10000 | COc1ccc(CN2CCC(O)CC2)cc1-c1cccc(Cl)c1 | –
> 100000 | > 100000 | COc1ccc(CN[C@@H](Cc2c[nH]c3ccccc23)C(=O)O)cc1-c1cccc(Cl)c1 | –
2300 | 1200 | COc1ccc(CNc2cccnc2)cc1-c1cccc(Cl)c1 | Imax [3]: 100%
> 10000 | > 10000 | FC(F)Oc1ccc(CNc2cccnc2)cc1-c1cccc(Cl)c1 | –
> 10000 | > 10000 | COc1ccc(CN2CCCC(C)C2)cc1-c1cccc(Cl)c1 (centres undefined) | –
170 | 40 | O=C(Nc1ccccc1Cl)c1ccc(OC(F)F)c(OCC2CC2)c1 | –
790 | 1280 | Fc1cccc(-c2cc(CNc3cccnc3)cc3c2OCC3)c1 | –
> 100000 | > 100000 | COc1ccc(CNc2cccc(N(C)C)c2)cc1-c1cccc(Cl)c1 | –
4100 | 2100 | FC(F)Oc1ccc(CN2CCOCC2)cc1-c1cccc(Cl)c1 | –
680 | 1200 | COc1cccc(-c2cc(CNc3cccnc3)ccc2OC)c1 | Activity [4]: Active; Activity [5]: Active; Activity [6]: Non-Toxic; Imax [3]: 90%
3700 | 2100 | COc1ccc(CN2CCOCC2)cc1-c1cccc(F)c1 | –
– | 300 | COc1ccc(C2CNC(=O)C2)cc1OC1CCCC1 (centres undefined) [ROLIPRAM] | –
> 10000 | > 10000 | COc1ccc(CNc2ccc(F)cc2)cc1-c1cccc(Cl)c1 | –
940 | 1310 | Clc1cccc(-c2cc(CNc3cccnc3)cc3c2OCC3)c1 | –
> 10000 | > 10000 | COc1ccc(CNc2ccccn2)cc1-c1cccc(Cl)c1 | –
> 10000 | > 10000 | COc1ccc(NCc2ccc(OC)c(-c3cccc(Cl)c3)c2)cc1 | –
> 10000 | > 10000 | COC(=O)c1ccc(NCc2ccc(OC)c(-c3cccc(Cl)c3)c2)cc1 | –
> 10000 | > 10000 | COc1ccc(CN[C@@H](Cc2ccccc2)C(=O)O)cc1-c1cccc(Cl)c1 | –
340 | 380 | COc1ccc(CNc2cccnc2)cc1-c1cccc(F)c1 | Activity [4]: Active; AUC(0-t) at 24 h [7]: 84.4 ng·h/mL; bioavailability [8]: 8.2%; Cmax [9]: 701 ng/mL; MRT inf [10]: 0.69 h; Activity [5]: Active; MRT inf [11]: 7.61 h; AUC(0-inf) [12]: 134 ng·h/mL; Tmax [13]: 4.8 min; clearance [14]: 103 mL/min/kg; Cmax [15]: 14.7 ng/mL; half-life [16]: 1.26 h; Vd [17]: 4.35 L/kg; AUC(0-t) at 24 h [18]: 325 ng·h/mL; Tmax [19]: 3.33 h; Activity [6]: Non-Toxic; Imax [3]: 93%; AUC(0-inf) [20]: 327 ng·h/mL; half-life [21]: 4.32 h
